Common to all, as to assay: graphene oxide fluorescence desorption assay
Experiment [1] deals with OA-01 (DNA, aptamer) CAGCTCAGAAGCTTGATCCTGCACACGAGTTACGCCCCATCGTTGTCCTTTCCCTCACGTGACTCGAAGTCGTGCATCTG
To be noted: 150 mM Na+, 2 mM Mg2+; binding buffer 50 mM Tris, pH 7.4; 1 μM OA, 5–200 nM aptamer.

Experiment [2] relates to OA-08 (DNA, aptamer) CAGCTCAGAAGCTTGATCCTAGCCCGCCAACCTACATCATCTACACTTCGTTTTAACCTTGACTCGAAGTCGTGCATCTG
To be noted: 150 mM Na+, 2 mM Mg2+, binding buffer 50 mM Tris, pH 7.4; for binding: 1 μM compound tested, 150 nM aptamer.

In experiment [3] the test system is OA-09 (DNA, aptamer) CAGCTCAGAAGCTTGATCCTTAGCACACAACCCTTTGATTGGGATATCTCATCCCTCGGACTCGAAGTCGTGCATCTG
Conditions: 150 mM Na+, 2 mM Mg2+; binding buffer 50 mM Tris, pH 7.4; 1 μM OA, 5–200 nM aptamer.

Experiment [4] relates to OA-14 (DNA, aptamer) CAGCTCAGAAGCTTGATCCTATGCTTCGTGGGACAAGAGTTGACACATCGTCGTTAGGTTGACTCGAAGTCGTGCATCTG
To be noted: 150 mM Na+, 2 mM Mg2+; binding buffer 50 mM Tris, pH 7.4; 1 μM OA, 5–200 nM aptamer.

Experiment [5] deals with OA-17 (DNA, aptamer) CAGCTCAGAAGCTTGATCCTTTCCCCAAACTGTTGCAACCTCTGCTTTCTTTCGCTATATGACTCGAAGTCGTGCATCTG
To be noted: 150 mM Na+, 2 mM Mg2+, binding buffer 50 mM Tris, pH 7.4; for binding: 1 μM compound tested, 150 nM aptamer.

Experiment [6] relates to OA-21 (DNA, aptamer) CAGCTCAGAAGCTTGATCCTGGATGACCGTTGCAAGCGATCCATTGTTGTTTGATCATGTGACTCGAAGTCGTGCATCTG
Conditions: 150 mM Na+, 2 mM Mg2+; binding buffer 50 mM Tris, pH 7.4; 1 μM OA, 5–200 nM aptamer.

The subject of experiment [7] is OA-22 (DNA, aptamer) CAGCTCAGAAGCTTGATCCTGGCCCCGATATGATTGCTATCATTCGCATCTGCTTCACTTGACTCGAAGTCGTGCATCTG
Conditions: 150 mM Na+, 2 mM Mg2+; binding buffer 50 mM Tris, pH 7.4; 1 μM OA, 5–200 nM aptamer.

Experiment [8] concerns OA-27 (DNA, aptamer) CAGCTCAGAAGCTTGATCCTATTTGACCATGTCGAGGGAGACGCGCAGTCGCTACCACCTGACTCGAAGTCGTGCATCTG
To be noted: 150 mM Na+, 2 mM Mg2+, binding buffer 50 mM Tris, pH 7.4; for binding: 1 μM compound tested, 150 nM aptamer.

For experiment [9], the system named is OA27-1 (DNA, aptamer) ATTTGACCATGTCGAGGGAGACGCGCAGTCGCTACCACCT
Conditions: 150 mM Na+, 2 mM Mg2+; binding buffer 50 mM Tris, pH 7.4; FAM-aptamer, GO separation.

Each structure is given as a SMILES string.

On to `C=C1[C@@H](O)[C@@H]2O[C@]3(CC[C@H](/C=C/[C@@H](C)[C@@H]4CC(C)=C[C@@]5(O[C@H](C[C@@](C)(O)C(=O)O)CC[C@H]5O)O4)O3)CC[C@H]2O[C@@H]1[C@@H](O)C[C@H](C)[C@H]1O[C@@]2(CCCCO2)CC[C@H]1C`, for which the Kd is on record as 125 ± 22 nM in [1]; 88 ± 30 nM in experiment [2] (1 μM OA, 5–200 nM aptamer); 127 ± 39 nM in [3]; 1772 ± 543 nM in [4]; 79 ± 20 nM in experiment [5] (1 μM OA, 5–200 nM aptamer); 118 ± 18 nM in [6]. Moreover, the dissociation constant (Kd) in experiment [7] amounted to 70 ± 16 nM; in experiment [8] (1 μM OA, 5–200 nM aptamer), 42 ± 4 nM; in experiment [9], 40 nM.
For `C=C1[C@@H](O)[C@@H]2O[C@]3(CC[C@H](/C=C/[C@@H](C)[C@@H]4CC(C)=C[C@@]5(O[C@H](C[C@@](C)(O)C(=O)O)CC[C@H]5O)O4)O3)CC[C@H]2O[C@@H]1[C@@H](O)C[C@H](C)[C@@H]1CCC[C@@]2(OCCC[C@H]2C)O1`, the binding result in [2] is given as “yes”; in experiment [5], “yes”; in experiment [8], “no”.
For the molecule `C/C(=C/C=C/[C@@H](C)C(=O)O)[C@H]1CN[C@H](C(=O)O)[C@H]1CC(=O)O`, in experiment [8], the binding entry was “no”.
Regarding `C=C1[C@@H](O)[C@@H]2O[C@]3(CC[C@H](/C=C/[C@@H](C)[C@@H]4CC(C)=C[C@@]5(O[C@H](C[C@@](C)(O)C(=O)O)CC[C@H]5O)O4)O3)CC[C@H]2O[C@@H]1[C@@H](O)C[C@H](C)[C@H]1O[C@@]2(CC[C@H]1C)OCCC[C@H]2C`, the binding entry is reported as “yes” in experiment [2], “yes” in [5] and “no” in [8].

The term Kd denotes the constant that tells how readily two partners part at equilibrium. The low end stands for tighter binding, the high end for weaker binding.

The values above are taken from article PMC4761938 (2016).
